Experiments:
[1] = target: T1, Glucose-dependent insulinotropic receptor (Homo sapiens) (UniProt Q8TDV5); assay: […] of human GPR119 activity by homogeneous time resolved fluorescence cyclase (cAMP) assay relative to AR231453; type: functional
T1 sequence (whole entry): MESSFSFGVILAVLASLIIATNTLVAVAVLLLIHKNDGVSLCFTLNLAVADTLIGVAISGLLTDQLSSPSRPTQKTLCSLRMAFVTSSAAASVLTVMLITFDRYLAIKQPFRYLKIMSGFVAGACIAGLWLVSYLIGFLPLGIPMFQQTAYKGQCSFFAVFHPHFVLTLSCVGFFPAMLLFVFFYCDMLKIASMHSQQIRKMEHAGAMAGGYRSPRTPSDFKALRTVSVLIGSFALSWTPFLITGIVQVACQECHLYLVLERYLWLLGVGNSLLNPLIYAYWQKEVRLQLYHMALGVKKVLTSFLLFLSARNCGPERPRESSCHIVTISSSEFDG

[2] = target: T2, Glucose-dependent insulinotropic receptor (Homo sapiens, UniProt Q8TDV5); assay: […] of human GPR119 activity by homogeneous time resolved fluorescence cyclase (cAMP) assay; type: functional
T2 sequence (Q8TDV5 whole entry): T1 sequence (whole entry)

[3] = target: T3, Glucose-dependent insulinotropic receptor (Rattus norvegicus, UniProt Q7TQN8); assay: […] of rat GPR119 activity by homogeneous time resolved fluorescence cyclase (cAMP) assay; type: functional
T3 sequence (Q7TQN8 whole entry): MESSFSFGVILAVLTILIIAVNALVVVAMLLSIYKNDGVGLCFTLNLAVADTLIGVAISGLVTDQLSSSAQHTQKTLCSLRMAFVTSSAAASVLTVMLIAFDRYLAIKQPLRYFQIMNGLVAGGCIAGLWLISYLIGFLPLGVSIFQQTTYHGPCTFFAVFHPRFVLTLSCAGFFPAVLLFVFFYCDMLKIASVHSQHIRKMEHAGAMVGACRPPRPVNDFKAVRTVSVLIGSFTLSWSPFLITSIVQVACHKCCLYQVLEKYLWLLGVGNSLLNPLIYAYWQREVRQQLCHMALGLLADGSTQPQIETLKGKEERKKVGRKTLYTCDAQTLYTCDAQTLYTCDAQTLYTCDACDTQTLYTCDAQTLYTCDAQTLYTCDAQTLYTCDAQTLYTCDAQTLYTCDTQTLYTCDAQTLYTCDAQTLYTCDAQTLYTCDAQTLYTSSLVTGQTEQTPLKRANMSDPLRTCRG

[4] = target: T4, Glucose-dependent insulinotropic receptor (Rattus norvegicus) (UniProt Q7TQN8); assay: […] of rat GPR119 activity by homogeneous time resolved fluorescence cyclase (cAMP) assay relative to AR231453; type: functional
T4 sequence (whole entry): T3 sequence (Q7TQN8 whole entry)

Cytochrome P450 2C9 = Cytochrome P450 2C9 (Homo sapiens, UniProt P11712); assay: Inhibition of CYP2C9 (unknown origin); type: ADME
Sequence of Cytochrome P450 2C9 (P11712 whole entry): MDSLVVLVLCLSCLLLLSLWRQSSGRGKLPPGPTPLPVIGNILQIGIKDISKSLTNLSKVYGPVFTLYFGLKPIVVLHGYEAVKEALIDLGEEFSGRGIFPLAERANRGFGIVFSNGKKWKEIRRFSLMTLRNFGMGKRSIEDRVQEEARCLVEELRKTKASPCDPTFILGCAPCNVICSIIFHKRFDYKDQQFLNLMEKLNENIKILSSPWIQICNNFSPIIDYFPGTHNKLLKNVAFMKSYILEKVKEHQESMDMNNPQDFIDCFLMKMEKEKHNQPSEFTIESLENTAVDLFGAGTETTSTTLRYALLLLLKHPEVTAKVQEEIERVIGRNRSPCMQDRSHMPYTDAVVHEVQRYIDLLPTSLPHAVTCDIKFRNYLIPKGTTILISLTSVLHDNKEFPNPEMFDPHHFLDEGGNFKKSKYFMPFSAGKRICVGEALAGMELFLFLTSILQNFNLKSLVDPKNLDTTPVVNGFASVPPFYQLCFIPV

Row | Efficacy [1] [%] | EC50 [2] [nM] | EC50 [3] [nM] | Efficacy [4] [%] | IC50 (Cytochrome P450 2C9) [nM] | SMILES
1 | 56 | 9.2 | 110 | 85 |  | Cc1nc(S(C)(=O)=O)ccc1Oc1ncnc(OC2CCN(C(=O)O[C@H](C)C(F)(F)F)CC2)c1F
2 | 66 | 76.3 | 296 | 74 |  | Cc1nc(S(C)(=O)=O)ccc1Oc1ncnc(OC2CCN(C(=O)C(C)(C)F)CC2)c1F
3 | 72 | 186 | 1680 | 84 |  | Cc1nc(S(C)(=O)=O)ccc1Oc1ncnc(OC2CCN(C(=O)O[C@@H](C)CF)CC2)c1F
4 | 76 | 37 | 239 | 87 |  | Cc1nc(S(C)(=O)=O)ccc1Oc1ncnc(OC2CCN(C(=O)C(C)(F)F)CC2)c1F
5 | 36 | 6.53 | 47.2 | 79 |  | Cc1nc(S(C)(=O)=O)ccc1Oc1ncnc(OC2CCN(C(=O)OC(C)(C)C(F)(F)F)CC2)c1F
6 | 75 | 21 | 142 | 77 | > 50000 | Cc1nc(S(C)(=O)=O)ccc1Oc1ncnc(OC2CCN(C(=O)OC(C)C)CC2)c1F
7 | 85 | 17.4 | 69.2 | 90 |  | CCC(F)(F)C(=O)N1CCC(Oc2ncnc(Oc3ccc(S(C)(=O)=O)nc3C)c2F)CC1
8 | 66 | 29.3 | 342 | 84 |  | Cc1nc(S(C)(=O)=O)ccc1Oc1ncnc(OC2CCN(C(=O)OC3(C(F)(F)F)COC3)CC2)c1F
9 | 52 | 151 | 880 | 76 |  | Cc1nc(S(C)(=O)=O)ccc1Oc1ncnc(OC2CCN(C(=O)C(F)(F)F)CC2)c1F
10 | 78 | 9.86 | 109 | 80 |  | Cc1nc(S(C)(=O)=O)ccc1Oc1ncnc(OC2CCN(C(=O)O[C@@H](C)C(F)(F)F)CC2)c1F
11 | 81 | 7.91 | 49.6 | 97 |  | Cc1nc(S(C)(=O)=O)ccc1Oc1ncnc(OC2CCN(C(=O)OC(C)(C)C)CC2)c1F
12 | 59 | 196 | 1520 | 79 |  | Cc1nc(S(C)(=O)=O)ccc1Oc1ncnc(OC2CCN(C(=O)O[C@H](C)CF)CC2)c1F
13 | 74 | 19.9 | 138 | 95 |  | Cc1nc(S(C)(=O)=O)ccc1Oc1ncnc(OC2CCN(C(=O)OC(C)(C)CF)CC2)c1F
14 | 38 | 14.3 | 63.3 | 82 |  | Cc1nc(S(C)(=O)=O)ccc1Oc1ncnc(OC2CCN(C(=O)OC3(C(F)(F)F)CCC3)CC2)c1F
15 | 90 | 92.9 | 1320 | 97 |  | Cc1nc(S(C)(=O)=O)ccc1Oc1ncnc(OC2CCN(C(=O)OC(C)(C)C#N)CC2)c1F

Further lines, the compound ahead of its results:

Row | SMILES | Efficacy [1] [%] | EC50 [2] [nM] | EC50 [3] [nM] | Efficacy [4] [%] | IC50 (Cytochrome P450 2C9) [nM]
16 | Cc1nc(S(C)(=O)=O)ccc1Oc1ncnc(OC2CCN(C(=S)OC(C)C)CC2)c1F | -32 | 69.9 | 1050 | 47 | 
17 | Cc1nc(S(C)(=O)=O)ccc1Oc1ncnc(OC2CCN(C(=O)OC3COC3)CC2)c1F | 58 | 326 | 2500 | 66 | 
18 | Cc1nc(S(C)(=O)=O)ccc1Oc1ncnc(OC2CCN(C(=O)SC3(C)CC3)CC2)c1F | 93 | 13.2 | 166 | 77 | 
19 | Cc1nc(S(C)(=O)=O)ccc1Oc1ncnc(OC2CCN(C(=O)SC(C)(C)C)CC2)c1F | 87 | 4.83 | 30.7 | 76 | 
20 | Cc1nc(S(C)(=O)=O)ccc1Oc1ncnc(OC2CCN(C(=O)SC3CCC3)CC2)c1F | 94 | 8.51 | 77.4 | 81 | 
21 | CCC1(OC(=O)N2CCC(Oc3ncnc(Oc4ccc(S(C)(=O)=O)nc4C)c3F)CC2)CC1 | 65 | 22 | 333 | 83 | 
22 | Cc1nc(S(C)(=O)=O)ccc1Oc1ncnc(OC2CCN(C(=O)C3(C)CC3)CC2)c1F | 72 | 761 |  |  | 
23 | Cc1nc(S(C)(=O)=O)ccc1Oc1ncnc(OC2CCN(C(=O)SC(C)C)CC2)c1F | 95 | 6.8 | 41.3 | 81 | 
24 | Cc1nc(S(C)(=O)=O)ccc1Oc1ncnc(OC2CCN(C(=O)C3CCCC3)CC2)c1F | 87 | 72.8 | 407 | 83 | 
25 | Cc1nc(S(C)(=O)=O)ccc1Oc1ncnc(OC2CCN(C(=S)OC3(C)CC3)CC2)c1F |  |  | 48.8 | 49 | 
26 | Cc1nc(S(C)(=O)=O)ccc1Nc1ncnc(OC2CCN(C(=O)OC(C)C)CC2)c1F | 77 | 132 | 265 | 85 | 5500
27 | Cc1nc(S(C)(=O)=O)ccc1Oc1ncnc(OC2CCN(C(=O)c3noc(C(C)(C)F)n3)CC2)c1F | 69 | 14 | 103 | 74 | 
28 | Cc1nc(S(C)(=O)=O)ccc1Oc1ncnc(OC2CCN(C(=O)C3(F)CCC3)CC2)c1F | 99 | 24.7 | 123 | 91 | 
29 | CCc1cnc(C(=O)N2CCC(Oc3ncnc(Oc4ccc(S(C)(=O)=O)nc4C)c3F)CC2)nc1 | 99 | 4.7 | 40.8 | 80 | 
30 | COc1c(Nc2ccc(S(C)(=O)=O)nc2C)ncnc1OC1CCN(C(=O)OC(C)C)CC1 [ADP-597] | 75 |  |  | 89 | 5800
31 | Cc1nc(S(C)(=O)=O)ccc1Oc1ncnc(OC2CCN(C(=O)c3nc(C(C)(C)F)no3)CC2)c1F | 74 | 43.4 | 606 | 84 | 
32 | Cc1nc(S(C)(=O)=O)ccc1Oc1ncnc(OC2CCN(C(=O)OC3CCC3)CC2)c1F | 65 | 13.6 | 167 | 81 | 
33 | Cc1nc(S(C)(=O)=O)ccc1Oc1ncnc(OC2CCN(C(=O)c3ncc(Cl)cn3)CC2)c1F | 83 | 6.12 | 30.9 | 77 | 
34 | Cc1nc(S(C)(=O)=O)ccc1Oc1ncnc(OC2CCN(C(=O)SC3CC3)CC2)c1F | 103 | 24.9 | 126 | 80 | 
35 | Cc1nc(S(C)(=O)=O)ccc1Oc1ncnc(OC2CCN(C(=O)c3noc(C(C)C)n3)CC2)c1F | 72 | 21.2 | 176 | 81 | 
